# Key:
# MC38 tumor [1] = experiment: MC38 subcutaneous syngeneic tumor model; assay type: in vivo, mice
# Method: (FIG. 1A) NQO1 positive tumor cell lines MC38, TC-1 and Ag104Ld and NQO1 negative cell lines Panc02 and B16 grown in 48-well plates were treated with β-lap (0-8 μM) for a 3 hr followed by washing and replacing medium. Cell viability was determined by Sulforhodamine B (SRB) Assay 4 days later. […] (FIG. 1C) MC38 cells with CRISPR-based NQO1 Knockout (MC38 NQO1KO #5) planted in 96-well plates were exposed to β-lap for 3 hr and cell survival was assessed 48 hr later. […] (FIG. 1E) MC38 cells were exposed to a lethal dose of β-lap (4 μM) for indicated times, then stained with 7-AAD and Annexin V followed by flow cytometry analysis. […] (FIG. 1H) MC38 and B16 NQO1 #1 cells were exposed to β-lap for a 3 hr. Catalase (1000 U/ml) was added and cell survival was assessed 48 hr later. (FIG. 1I) C57BL/6 mice (n=5/group) were transplanted with MC38 cells and treated with β-lap (0.03 mg, 0.1 mg or 0.3 mg, intratumorally; or 25 mg/kg, i.v.) every other day for four times. (FIG. 1J) C57BL/6 mice were transplanted with MC38 cells (NQO1 WT or KO, n=5/group) and treated with β-lap (0.3 mg, i.t.) every other day for four times. Tumor growth was monitored twice a week.
# (FIG. 2A) MC38 cells were subcutaneously transplanted into C57BL/6 WT (n=5-6/group) and Rag1 KO mice (n=5/group), respectively. Tumor bearing mice were treated with β-lap (0.3 mg, i.t.) every other day for four times. […] (FIG. 2B) MC38 tumor bearing C57BL/6 mice (n=5/group) were treated with β-lap (0.3 mg, i.t.) every other day for four times. For CD8^+ T cell depletion, 200 μg of anti-CD8 antibodies were intraperitoneally injected four times at three days interval during the treatment. (FIG. 2C) TC-1 tumor bearing C57BL/6 mice (n=4-5/group) were treated with β-lap (0.1 mg, i.t.) for four times with or without anti-CD8 antibodies. […] (FIG. 2E) 2×10^6 A549 cells were subcutaneously injected into C57BL/6 Rag1^−/− mice (n=5/group for vehicle and β-lap; n=7/group for vehicle+OT-1 and β-lap+OT-1). 30 days later, the mice were i.v. adoptively transfected with 2×10^6 lymph node cells from OT-1 transgenic mice. On the following day, tumor-bearing mice were intratumorally treated with β-lap (0.2 mg) every other day for 4 times. (FIG. 2F) A549 cells were subcutaneously injected into NSG-SGM3 (n=5/group) or NSG-SGM3 harboring human CD34^+ hematopoietic stem cells (n=5/group for Hu-NSG vehicle; n=6/group for Hu-NSG β-lap). Tumor bearing mice were treated with β-lap (0.2 mg, i.t.) every other day for four times. Tumor growth was measured twice a week.
# (FIG. 6A) Treatment schema for local β-lap treatment based combinative therapy in FIG. 6B and FIG. 6C. (FIGS. 6B-C) MC38 tumor cells were s.c. inoculated into the flank of C57BL/6 mice (n=5/group). Mice bearing small tumor (about 50 mm^3, B) or advanced tumor (about 150-200 mm^3, FIG. 6C) were locally treated with β-lap (0.3 mg, i.t.) for four times with or without anti-PD-L1 based checkpoint blockage.
# MC38 tumor [2] = experiment: MC38 subcutaneous syngeneic tumor model; assay type: in vivo, mice; remark: listed apart in the source
structure (smiles),measurement,setting,value
"CC1(C)CCC2=C(O1)c1ccccc1C(=O)C2=O [β-lap, β-lapachone]",re-challenge of cured mice,"MC38 tumor [1]; 3×10^6 MC38 cells, 30 days after complete rejection",rejected the re-challenged tumors
same,therapeutic activity in immune-deficient mice,"MC38 tumor [1]; Rag1 KO C57BL/6 mice, 0.3 mg i.t. four times",lost therapeutic activity
same,TGI,"MC38 tumor [1]; large established tumors (about 150-200 mm^3), β-lap 15 mg/kg i.t. four times, anti-PD-L1 100 μg i.p. three times",59.36%
same,Tumor growth inhibition rate (TGI),"MC38 tumor [1]; local (intratumoral) β-lap 1.5 mg/kg mg, every other day 4 doses",11.8%
same,Tumor growth inhibition rate (TGI),"MC38 tumor [1]; local (intratumoral) β-lap 5 mg/kg, every other day 4 doses",69.4%
same,Tumor growth inhibition rate (TGI),"MC38 tumor [1]; local (intratumoral) β-lap 15 mg/kg mg, every other day 4 doses",89.3%
same,Tumor growth inhibition rate (TGI),"MC38 tumor [1]; systemic β-lap 25 mg/kg i.v., every other day four times",62.5%
same,antitumor effect with CD8+ T cell depletion,MC38 tumor [1]; β-lap 0.3 mg i.t. + anti-CD8 200 μg,abolished β-lap's antitumor effect
same,response with macrophage depletion,MC38 tumor [1]; β-lap 0.3 mg i.t. + anti-CSF1R Ab 100 μg i.t.,did not affect the response
same,therapeutic effect with type I IFN blockade,MC38 tumor [1]; β-lap 0.3 mg i.t. + anti-IFNAR1 150 μg i.t.,significantly diminished the therapeutic effect
same,therapeutic effect in Batf3−/− mice,MC38 tumor [1]; β-lap 0.3 mg i.t. four times,no therapeutic effect
same,tumor regression in Myd88−/− mice,MC38 tumor [1]; β-lap 0.3 mg i.t. four times,disappeared
same,tumor growth with irradiation,"MC38 tumor [2]; 10 Gy + 0.1 mg β-lap, 3 i.t. injections, tumors 100 mm^3",significant inhibition of tumor growth
same,response with irradiation,"MC38 tumor [2]; 10 Gy + β-lap 30 mg/kg i.p. every other day, 6 injections, tumors 50 mm3",significant synergistic responses
same,therapeutic effect in NQO1 knockout MC38 mouse models,"MC38 tumor [2]; NQO1 KO MC38, 0.3 mg i.t. four times",abolished
same,mice cured,"MC38 tumor [2]; WT C57BL/6, 4 doses of β-lap (0.3 mg, i.t.)",50%
same,mice with complete tumor rejection,"MC38 tumor [2]; local β-lap 15 mg/kg, 7/15 mice",46.7%
same,TGI,"MC38 tumor [2]; small tumors (about 50 mm^3), β-lap 0.3 mg i.t. four times",93.0%
same,antitumor efficacy with anti-IFNAR blocking antibody,"MC38 tumor [2]; β-lap 0.1 mg i.t., anti-IFNAR Ab 150 μg",greatly impaired the antitumor efficacy
same,effect with HMGB1 blockade,MC38 tumor [2]; β-lap 0.3 mg i.t. + anti-HMGB1 200 μg i.p.,diminished the effect
same,therapeutic effect with neutrophil depletion,MC38 tumor [2]; β-lap 0.3 mg i.t. + anti-Ly-6G 200 μg,greatly impaired the therapeutic effect
same,tumor regression in IFNAR knockout mice,"MC38 tumor [2]; β-lap 0.3 mg i.t. day 9, 12, 15",totally abrogated
same,therapeutic effect in Ifnar−/− mice,MC38 tumor [2]; β-lap 0.3 mg i.t. four times,abrogated
same,antitumor effect alone or with CD4+ T cell depletion,MC38 tumor [2]; β-lap 0.3 mg i.t. ± anti-CD4 200 μg,controlled MC38 tumor growth
same,"tumor growth, systemic treatment","MC38 tumor [2]; β-lap 30 mg/kg i.p. six times, anti-PD-L1, tumors about 50-100 mm^3",moderate inhibition of tumor growth

# From patent publication US20220160703A1, “TUMOR-SELECTIVE COMBINATION THERAPY” (The Board of Regents of The University of Texas System, priority 2019, published 2022)
